Data published in patent US8455522B2, “Benzoxazolone derivatives as aldosterone synthase inhibitors” (Novartis AG, priority 2009, dated 2013).

What was measured:
[1] = molecular target: T1, aldosterone synthase (Homo sapiens, UniProt P19099); assay: Aldosterone cell secretion in NCI-H295R cells (aldosterone synthase inhibition, SPA); assay type: cell-based; settings: human adrenocortical carcinoma NCI-H295R cells, 1 μM Ang II, 24 hr
T1 construct: host or cells: NCI-H295R
T1 sequence (P19099 25-503): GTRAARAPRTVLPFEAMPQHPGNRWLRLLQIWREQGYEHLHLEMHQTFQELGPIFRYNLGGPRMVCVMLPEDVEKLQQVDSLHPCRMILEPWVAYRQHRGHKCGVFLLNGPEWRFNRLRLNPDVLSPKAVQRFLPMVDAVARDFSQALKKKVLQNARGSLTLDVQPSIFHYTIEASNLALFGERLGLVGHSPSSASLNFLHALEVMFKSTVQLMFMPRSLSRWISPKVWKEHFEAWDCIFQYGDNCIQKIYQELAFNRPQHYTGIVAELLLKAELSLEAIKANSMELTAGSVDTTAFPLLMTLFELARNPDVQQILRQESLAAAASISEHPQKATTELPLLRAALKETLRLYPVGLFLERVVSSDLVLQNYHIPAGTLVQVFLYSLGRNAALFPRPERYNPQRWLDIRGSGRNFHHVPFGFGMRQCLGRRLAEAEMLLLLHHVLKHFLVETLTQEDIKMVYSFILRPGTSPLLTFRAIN
Source text: In particular, the aldosterone synthase inhibitory activities in vitro can be determined by the following assay.
Human adrenocortical carcinoma NCI-H295R cell line was obtained from American Type Culture Collection (Manassas, Va.). Insulin/transferrin/selenium (ITS)-A supplement (100×). DMEM/F-12, antibiotic/antimycotic (100×), and fetal bovine serum (FBS) were purchased from Invitrogen (Carlsbad, Calif.). Anti-mouse PVT scintillation proximity assay (SPA) beads and NBS 96-well plates were obtained from GE Health Sciences (Piscataway, N.J.) and Corning (Acton, Mass.), respectively. Solid black 96-well flat bottom plates were purchased from Costar (Corning, N.Y.). Aldosterone and angiotensin (Ang II) were purchased from Sigma (St. Louis, Mo.). D-[1,2,6,7-^3H(N)]aldosterone was acquired from PerkinElmer (Boston, Mass.). Nu-serum was a product of BD Biosciences (Franklin Lakes, N.J.). The NADPH regenerating system, dibenzylfluorescein (DBF), and human aromatase Supersomes® were obtained from Gentest (Woburn, Mass.).
For in vitro measurement of aldosterone activity, human adrenocortical carcinoma NCI-H295R cells are seeded in NBS 96-well plates at a density of 25,000 cells/well in 100 μl of a growth medium containing DMEM/F12 supplemented with 10% FCS, 2.5% Nu-serum, 1 μg ITS/ml, and 1× antibiotic/antimycotic. The medium is changed after culturing for 3 days at 37° C. under an atmosphere of 5% CO2/95% air. On the following day, cells are rinsed with 100 μl of phosphate-buffered saline (PBS) and incubated with 100 μl of treatment medium containing 1 μM Ang II and a compound at different concentrations in quadruplicate wells at 37° C. for 24 hr. At the end of incubation, 50 μl of medium is withdrawn from each well for measurement of aldosterone production by an SPA using mouse anti-aldosterone monoclonal antibodies.
Measurement of aldosterone activity can also be performed using a 96-well plate format. Each test sample is incubated with 0.02 μCi of D-[1,2,6,7-^3H(N)]aldosterone and 0.3 μg of anti-aldosterone antibody in PBS containing 0.1% Triton X-100, 0.1% bovine serum albumin, and 12% glycerol in a total volume of 200 μl at room temperature for 1 hr. Anti-mouse PVT SPA beads (50 μl) are then added to each well and incubated overnight at room temperature prior to counting in a Microbeta plate counter. The amount of aldosterone in each sample is calculated by comparing with a standard curve generated using known quantities of the hormone.
(§1) Inhibition of the release of certain steroids can be used as a measure of the respective enzyme inhibition by the added test compounds. The dose-dependent inhibition of enzymic activity by a compound is calculated by means of an inhibition plot which is characterized by an IC50.
The IC50 values for active test compounds are ascertained by a simple linear regression analysis in order to construct inhibition plots without data weighting. The inhibition plot is calculated by fitting a 4-parameter logistic function to the raw data points using the least squares method. The equation of the 4-parameter logistic function is calculated as follows: Y=(d−a)/((1+(x/c)b))+a, where: a=minimum data level, b=gradient, I […], d=maximum data level, x=inhibitor concentration.
The inhibition activity of aldosterone production can also be expressed in percentage inhibition (% inhibition) at a given concentration (e.g. % inhibition at 1 μM), which is the aldosterone level when the cell is treated with the given concentration of a compound of this invention (e.g. concentration of 1 μM) versus the aldosterone excretion when cell is free of the compound of the invention: % inhibition aldosterone production=[(Y−X)/Y]×100 wherein X is the level of aldosterone when the cell is treated with a compound of Formula I; and Y is the level of aldosterone when the cell is free of compound of Formula I.

[2] = molecular target: T2, CYP11B1 (Homo sapiens, UniProt P15538); assay: Cortisol cell secretion in NCI-H295R cells (CYP11B1 activity); assay type: cell-based; settings: compound at 1 μM; for inhibition at 1 µM: NCI-H295R, read-out: Cortisol cell secretion (% Inhib. @ 1 μM)
T2 construct: the NCI-H295R cells have Cyp11 B1 (steroid 11 β-hydroxylase); host or cells: NCI-H295R
T2 sequence (P15538 25-503): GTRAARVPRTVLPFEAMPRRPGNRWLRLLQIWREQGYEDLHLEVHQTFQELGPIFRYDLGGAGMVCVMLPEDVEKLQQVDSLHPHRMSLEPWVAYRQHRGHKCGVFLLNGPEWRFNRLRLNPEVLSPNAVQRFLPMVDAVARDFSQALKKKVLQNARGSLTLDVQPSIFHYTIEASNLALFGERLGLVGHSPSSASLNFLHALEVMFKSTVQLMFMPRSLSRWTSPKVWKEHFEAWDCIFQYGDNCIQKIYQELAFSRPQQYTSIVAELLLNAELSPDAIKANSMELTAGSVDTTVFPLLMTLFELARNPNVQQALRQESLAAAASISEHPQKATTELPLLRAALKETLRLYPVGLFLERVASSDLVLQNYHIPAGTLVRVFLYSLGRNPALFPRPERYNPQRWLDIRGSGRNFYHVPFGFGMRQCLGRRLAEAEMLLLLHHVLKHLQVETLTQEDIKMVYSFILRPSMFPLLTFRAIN
Source text: The in vitro inhibitory activities for CYP1B1 can be determined by the following assay.
The cell line NCI-H295R was originally isolated from an adrenocortical carcinoma and has been characterized in the literature through the stimulable secretion of steroid hormones and the presence of the enzymes essential for steroidogenesis. Thus, the NCI-H295R cells have Cyp11 B1 (steroid 11 β-hydroxylase). The cells show the physiological property of zonally undifferentiated human foetal adrenocortical cells which, however, have the capacity to produce the steroid hormones which are formed in the three, phenotypically distinguishable zones in the adult adrenal cortex.
The NCI-H295R cells (American Type Culture Collection, ATCC, Rockville, Md., USA) are grown in Dulbeoco's Modified Eagle'Ham F-12 Medium (DME/F12), which has been supplemented with Ulroser SF Serum (Soprachem, Geigy-Saint-Christophe, France), insulin, transferrin, selenite (I-T-S, Becton Dickinson Biosiences, Franklin lakes. NJ, USA) and antibiotics in 75 cm^2 cell culture vessels at 37° C. and in a 95% air-5% carbon dioxide atmosphere. The cells are subsequently transferred for colony formation into a 24-well incubation vessel. They are cultivated there in DME/F12 medium, which is now supplemented with 0.1% bovine serum instead of Ultroser SF for 24 hours. The experiment is initiated by cultivating the cells in DME/F12 medium which is supplemented with 0.1% bovine serum albumin and test compound, in the presence or absence of cell stimulants, for 72 hours. The test substance is added in a concentration range from 0.2 nanomolar to […]. Cell stimulants which can be used are angiotensin II (1 D or 100 nanomolar), potassium ions (16 millimolar), forskolin (10 micromolar) or a combination of two stimulants.
The excretion of aldosterone, cortisol, corticosterone and estradiol/estrone into the culture medium can be detected and quantified by commercially available, specific monoclonal antibodies in radioimmunoassays in accordance with the manufacturer's instructions.
as §1
The inhibition activity of cortisol production (CYP11B1 activity) can also be expressed in percentage inhibition (% inhibition) at a given concentration (e.g. % inhibition at 1 μM), which is the cortisol level when cell is treated with the given concentration of a compound of the invention (e.g. concentration of 1 μM) versus the cortisol excretion when cell is free of the compound of the invention. % inhibition cortisol production=[(Y′−X′)/Y′]×100 wherein X′ is the level of cortisol when the cell is treated with a compound of Formula I; and Y′ is the level of cortisol when the cell is free of compound of Formula I.

IC50 [1]	inhibition at 1 µM [2]	Cortisol cell secretion (% Inhib. @ 1 μM) ([2]; 1 µM)	Cortisol cell secretion (% Inhib. @ 1 μM) [2]	Structure (SMILES)
128 nM	39%	–	–	Cn1c(=O)oc2cc(F)c(-c3cncc(CO)c3)cc21 [Example 11]
3 nM	89%	–	–	Cn1c(=O)oc2ccc(-c3cncc(C(C)(C)O)c3)cc21 [Example 14, 5-(5-(2-hydroxypropan-2-yl)pyridin-3-yl)-3-methylbenzo[d]oxazol-2(3H)-one]
66 nM	–	73%	–	Cn1c(=O)oc2ccc(-c3cnccc3C(O)c3ccc(F)cc3)cc21 (single isomer, unassigned) [Example 8 Enantiomer 2, 5-(4-((4-fluorophenyl)(hydroxy)methyl)pyridin-3-yl)-3-methylbenzo[d]oxazol-2(3H)-one]
1.4 nM	95%	–	–	Cn1c(=O)oc2ccc(-c3cncc(C(O)C(F)(F)F)c3)cc21 (stereo not drawn) [Example 19, 3-methyl-5-(5-(2,2,2-trifluoro-1-hydroxyethyl)pyridin-3-yl)benzo[d]oxazol-2(3H)-one]
437 nM	–	–	–	CC(O)c1ccncc1-c1ccc2oc(=O)n(C)c2c1 (single isomer, unassigned) [Example 7 Enantiomer 1, 5-(4-(1-hydroxyethyl)pyridin-3-yl)-3-methylbenzo[d]oxazol-2(3H)-one]
18 nM	77%	–	–	COc1cncc(-c2ccc3oc(=O)n(C)c3c2)c1 [Example 4, 5-(5-methoxypyridin-3-yl)-3-methylbenzo[d]oxazol-2(3H)-one]
452 nM	–	–	–	CC(O)c1ccncc1-c1ccc2oc(=O)n(C)c2c1 (single isomer, unassigned) [Example 7 Enantiomer 2, 5-(4-(1-hydroxyethyl)pyridin-3-yl)-3-methylbenzo[d]oxazol-2(3H)-one]
4 nM	82%	–	–	Cc1ccncc1-c1ccc2oc(=O)n(C)c2c1 [Example 2, 3-Methyl-5-(4-methyl-pyridin-3-yl)-3H-benzooxazol-2-one]
47 nM	57%	–	–	Cn1c(=O)oc2ccc(-c3cncc(C(N)C(F)(F)F)c3)cc21 (single isomer, unassigned) [Example 29 Enantiomer 1, 5-(5-(1-amino-2,2,2-trifluoroethyl)pyridin-3-yl)-3-methylbenzo[d]oxazol-2(3H)-one]
30 nM	–	–	64%	Cn1c(=O)oc2ccc(-c3cncc(C(O)C4CC4)c3)cc21 (single isomer, unassigned) [Example 13 Enantiomer 2, 5-(5-(cyclopropyl(hydroxy)methyl)pyridin-3-yl)-3-methylbenzo[d]oxazol-2(3H)-one]
68 nM	65.5%	–	–	CN(c1cncc(-c2ccc3oc(=O)n(C)c3c2)c1)S(=O)(=O)C1CC1 [Example 21, N-methyl-N-(5-(3-methyl-2-oxo-2,3-dihydrobenzo[d]oxazol-5-yl)pyridin-3-yl)cyclopropanesulfonamide]
154 nM	30%	–	–	CCCS(=O)(=O)Nc1cncc(-c2ccc3oc(=O)n(C)c3c2)c1 [Example 28, N-(5-(3-methyl-2-oxo-2,3-dihydrobenzo[d]oxazol-5-yl)pyridin-3-yl)propane-1-sulfonamide]
34 nM	–	–	57%	Cn1c(=O)oc2ccc(-c3cncc(C(N)C(F)(F)F)c3)cc21 (single isomer, unassigned) [Example 29 Enantiomer 2, 5-(5-(1-amino-2,2,2-trifluoroethyl)pyridin-3-yl)-3-methylbenzo[d]oxazol-2(3H)-one]
17.8 nM	58%	–	–	Cn1c(=O)oc2ccc(-c3cccnc3)cc21 [Example 1, 3-Methyl-5-pyridin-3-yl-3H-benzooxazol-2-one]
53 nM	77%	–	–	Cn1c(=O)oc2ccc(-c3cnccc3C(O)c3ccc(F)cc3)cc21 (single isomer, unassigned) [Example 8 Enantiomer 1, 5-(4-((4-fluorophenyl)(hydroxy)methyl)pyridin-3-yl)-3-methylbenzo[d]oxazol-2(3H)-one]
28 nM	64%	–	–	Cn1c(=O)oc2ccc(-c3cncc(C(O)C4CC4)c3)cc21 (single isomer, unassigned) [Example 13 Enantiomer 1, 5-(5-(cyclopropyl(hydroxy)methyl)pyridin-3-yl)-3-methylbenzo[d]oxazol-2(3H)-one]
